Data reported in US20050197350A1, “Novel quinoline, tetrahydroquinazoline, and pyrimidine derivatives and methods of treatment related to the use thereof” (TAISHO PHARMACEUTICAL CO., LTD., priority 2003, published 2005).

System: MCH receptors
Assay: MCH receptor activity class (method not given)
Settings: not given

| class | Structure (SMILES) |
| --- | --- |
| 1 | Cc1cc(N[C@H]2CC[C@@H](NC(=O)c3cccc(C#N)c3)CC2)nc2ccccc12 [Example 2550, 3-cyano-N-{cis-4-[(4-methylquinolin-2-yl)amino]cyclohexyl}benzamide] |
| 1 | Cc1ccc(C(=O)N[C@H]2CC[C@@H](Nc3nc(C)cc(N(C)C)n3)CC2)cc1 [Example 2565, N-(cis-4-{[4-(dimethylamino)-6-methylpyrimidin-2-yl]amino}cyclohexyl)-4-methylbenzamide] |

Same assay, conditions: MCH receptor activity class 1-3 (percent of control at 10^-7 M or IC50)

| Structure (SMILES) | class |
| --- | --- |
| CN(C)c1ccnc(N[C@H]2CC[C@@H](NC(=S)Nc3ccc4c(c3)OCCO4)CC2)n1 [compound 2349] | 3 (Class 3 The value of percent of control at 10^−7 M was more than 60% or the value of IC50 was more than 200 nM.) |
| CN(C)c1ccnc(N[C@H]2CC[C@@H](NC(=S)NCc3cccc(Cl)c3)CC2)n1 [compound 2337] | 3 (Class 3 The value of percent of control at 10^−7 M was more than 60% or the value of IC50 was more than 200 nM.) |

Same assay, conditions: MCH receptor; class by percent of control at 10^-7 M or IC50

| Structure (SMILES) | class |
| --- | --- |
| CN(C)c1cc(N[C@H]2CC[C@@H](NC(=O)c3ccc([N+](=O)[O-])o3)CC2)nc2ccccc12 [compound 111, N-(cis-4-{[4-(dimethylamino)quinolin-2-yl]amino}cyclohexyl)-5-nitro-2-furamide] | 1 (Class 1: The value of percent of control at 10^−7 M was less than 40% or the value of IC50 was less than 50 nM.) |
| CSc1ncccc1C(=O)N[C@H]1CC[C@@H](Nc2cc(N(C)C)c3ccccc3n2)CC1 [compound 42] | 3 (Class 3 The value of percent of control at 10^−7 M was more than 60% or the value of IC50 was more than 200 nM.) |
| CCOc1ccc(NC(=S)N[C@H]2CC[C@@H](Nc3nc4c(c(N(C)C)n3)CCCC4)CC2)cc1 [compound 1939] | 3 (Class 3 The value of percent of control at 10^−7 M was more than 60% or the value of IC50 was more than 200 nM.) |
| Cc1ccc(Oc2ncccc2C(=O)N[C@H]2CC[C@@H](Nc3cc(N(C)C)c4ccccc4n3)CC2)cc1 [compound 137, N-(cis-4-{[4-(dimethylamino)quinolin-2-yl]amino}cyclohexyl)-2-(4-methylphenoxy)nicotinamide] | 1 (Class 1: The value of percent of control at 10^−7 M was less than 40% or the value of IC50 was less than 50 nM.) |
| CN(C)c1cc(N[C@H]2CC[C@@H](CNC(=O)c3ccc(Br)cc3)CC2)nc2ccccc12 [compound 149] | 3 (Class 3 The value of percent of control at 10^−7 M was more than 60% or the value of IC50 was more than 200 nM.) |
| CN(C)c1cc(N[C@H]2CC[C@@H](CNC(=O)c3cccc(Cl)c3)CC2)nc2ccccc12 [compound 151] | 3 (Class 3 The value of percent of control at 10^−7 M was more than 60% or the value of IC50 was more than 200 nM.) |

Same assay, conditions: activity class per percent of control at 10^-7 M or IC50

| Structure (SMILES) | class |
| --- | --- |
| CN(C)c1nc(N[C@H]2CC[C@@H](NC(=O)CC(c3ccccc3)c3ccccc3)CC2)nc2c1CCCC2 [compound 1032] | 3 (Class 3 The value of percent of control at 10^−7 M was more than 60% or the value of IC50 was more than 200 nM.) |
| CN(C)c1cc(N[C@H]2CC[C@@H](NCc3cccc4ccccc34)CC2)nc2ccccc12 [compound 1119] | 3 (Class 3 The value of percent of control at 10^−7 M was more than 60% or the value of IC50 was more than 200 nM.) |
| CN(C)c1ccc(CNC[C@H]2CC[C@@H](Nc3cc(N(C)C)c4ccccc4n3)CC2)cc1 [compound 1151] | 3 (Class 3 The value of percent of control at 10^−7 M was more than 60% or the value of IC50 was more than 200 nM.) |
| COc1cc(Br)cc(CNC[C@H]2CC[C@@H](Nc3cc(N(C)C)c4ccccc4n3)CC2)c1O [compound 1129] | 2 (Class 2: The value of percent of control at 10^−7 M was from 40% to 60% or the value of IC′50 was from 50 nM to 200 nM.) |

Same assay, conditions: class 1-3 by percent of control at 10^-7 M or IC50

| Structure (SMILES) | class |
| --- | --- |
| CN(C)c1nc(N[C@H]2CC[C@@H](NC(=O)c3cccc(I)c3)CC2)nc2c1CCCC2 [compound 494] | 1 (Class 1: The value of percent of control at 10^−7 M was less than 40% or the value of IC50 was less than 50 nM.) |

Same assay, conditions: class by percent of control at 10^-7 M or IC50

| Structure (SMILES) | class |
| --- | --- |
| CN(C)c1cc(N[C@H]2CC[C@@H](NC(=O)c3ccc(Br)o3)CC2)nc2ccccc12 [compound 694, 5-bromo-N-(cis-4-{[4-(dimethylamino)quinolin-2-yl]amino}cyclohexyl)-2-furamide] | 1 (Class 1: The value of percent of control at 10^−7 M was less than 40% or the value of IC50 was less than 50 nM.) |
| Cc1cc(C(=O)NC[C@H]2CC[C@@H](Nc3nc4c(c(N(C)C)n3)CCCC4)CC2)ccc1F [compound 643] | 2 (Class 2: The value of percent of control at 10^−7 M was from 40% to 60% or the value of IC′50 was from 50 nM to 200 nM.) |
| CN(C)c1ccnc(N[C@H]2CC[C@@H](NC(=O)c3cccc(-n4c(-c5ccc(Br)cc5)cc5c4CC(C)(C)CC5=O)c3)CC2)n1 [compound 859] | 3 (Class 3 The value of percent of control at 10^−7 M was more than 60% or the value of IC50 was more than 200 nM.) |
| CN(C)c1nc(N[C@H]2CC[C@@H](NC(=O)Nc3ccc(F)c(F)c3)CC2)nc2c1CCCC2 [compound 1803] | 3 (Class 3 The value of percent of control at 10^−7 M was more than 60% or the value of IC50 was more than 200 nM.) |
| CN(C)c1ccnc(N[C@H]2CC[C@@H](NC(=O)c3ccccc3SC(F)F)CC2)n1 [compound 300] | 3 (Class 3 The value of percent of control at 10^−7 M was more than 60% or the value of IC50 was more than 200 nM.) |
| CN(C)c1ccnc(N[C@H]2CC[C@@H](NC(=O)Cc3ccc(Cl)c(Cl)c3)CC2)n1 [compound 838] | 3 (Class 3 The value of percent of control at 10^−7 M was more than 60% or the value of IC50 was more than 200 nM.) |
| CN(C)c1ccnc(N[C@H]2CC[C@@H](CNCc3ccc(Cl)cc3)CC2)n1 [compound 1270] | 3 (Class 3 The value of percent of control at 10^−7 M was more than 60% or the value of IC50 was more than 200 nM.) |
| CN(C)c1ccc(CNC[C@H]2CC[C@@H](Nc3nccc(N(C)C)n3)CC2)cc1 [compound 1272] | 3 (Class 3 The value of percent of control at 10^−7 M was more than 60% or the value of IC50 was more than 200 nM.) |
| CN(C)c1nc(N[C@H]2CC[C@@H](CNCc3cc(F)cc(C(F)(F)F)c3)CC2)nc2c1CCCC2 [compound 1440] | 3 (Class 3 The value of percent of control at 10^−7 M was more than 60% or the value of IC50 was more than 200 nM.) |
| CN(C)c1ccnc(N[C@H]2CC[C@@H](CNC(=O)c3cccc(Cl)c3)CC2)n1 [compound 369] | 3 (Class 3 The value of percent of control at 10^−7 M was more than 60% or the value of IC50 was more than 200 nM.) |
| COc1cc([N+](=O)[O-])ccc1NC(=S)N[C@H]1CC[C@@H](Nc2cc(N(C)C)c3ccccc3n2)CC1 [compound 2269] | 3 (Class 3 The value of percent of control at 10^−7 M was more than 60% or the value of IC50 was more than 200 nM.) |
| Cc1oc(-c2ccccc2)cc1CNC[C@H]1CC[C@@H](Nc2cc(N(C)C)c3ccccc3n2)CC1 [compound 1192] | 3 (Class 3 The value of percent of control at 10^−7 M was more than 60% or the value of IC50 was more than 200 nM.) |
| Cc1ccc2occ(CN[C@H]3CC[C@@H](Nc4nccc(N(C)C)n4)CC3)c(=O)c2c1 [compound 1227, 3-{[(cis-4-{[4-(dimethylamino)pyrimidin-2-yl]amino}-cylohexyl}-amino]methyl}-6-methyl-4H-chromen-4-one] | 3 (Class 3 The value of percent of control at 10^−7 M was more than 60% or the value of IC50 was more than 200 nM.) |
| COc1ccc(NC(=O)N[C@H]2CC[C@@H](Nc3nc4c(c(N(C)C)n3)CCCC4)CC2)cc1OC [compound 1720, N-(3,4-dimethoxyphenyl)-N′-(cis-4-{[4-(dimethylamino)-5,6,7,8-tetrahydroquinazolin-2-yl]amino}cyclohexyl)urea] | 2 (Class 2: The value of percent of control at 10^−7 M was from 40% to 60% or the value of IC′50 was from 50 nM to 200 nM.) |
| Cc1cccc(C)c1NC(=O)N[C@H]1CC[C@@H](Nc2cc(N(C)C)c3ccccc3n2)CC1 [compound 2090] | 3 (Class 3 The value of percent of control at 10^−7 M was more than 60% or the value of IC50 was more than 200 nM.) |
| Cc1ccc(NC(=O)NC[C@H]2CC[C@@H](Nc3nc4c(c(N(C)C)n3)CCCC4)CC2)cc1 [compound 2487] | 3 (Class 3 The value of percent of control at 10^−7 M was more than 60% or the value of IC50 was more than 200 nM.) |
| Cc1ccc(NC(=O)N[C@H]2CC[C@@H](Nc3nc4c(c(N(C)C)n3)CCCC4)CC2)cc1 [compound 1796] | 2 (Class 2: The value of percent of control at 10^−7 M was from 40% to 60% or the value of IC′50 was from 50 nM to 200 nM.) |

Same assay, conditions: class by percent of control at 10^−7 M or IC50

| Structure (SMILES) | class |
| --- | --- |
| Cc1nc(N[C@H]2CC[C@@H](NC(=O)c3ccc(F)cc3)CC2)nc(N(C)C)c1C [compound 2846, N-(cis-4-{[4-(dimethylamino)-5,6-dimethylpyrimidin-2-yl]amino}cyclohexyl)-4-fluorobenzamide] | 1 (Class 1: The value of percent of control at 10^−7 M was less than 40% or the value of IC50 was less than 50 nM.) |
| Cc1ccc(C(=O)NC[C@H]2CC[C@@H](Nc3ncc(C)c(N(C)C)n3)CC2)cc1 [compound 2691] | 3 (Class 3 The value of percent of control at 10^−7 M was more than 60% or the value of IC50 was more than 200 nM.) |
| Cc1cc(N(C)C)nc(N[C@H]2CC[C@@H](NC(=O)c3cccc(OC(F)(F)F)c3)CC2)n1 [compound 2967, N-(cis-4-{[4-(dimethylamino)-6-methylpyrimidin-2-yl]amino}cyclohexyl)-3-(trifluoromethoxy)benzamide] | 1 (Class 1: The value of percent of control at 10^−7 M was less than 40% or the value of IC50 was less than 50 nM.) |
| Cc1cnc(N[C@H]2CC[C@@H](NCc3ccc(Cl)c(Cl)c3)CC2)nc1N(C)C [compound 3002] | 3 (Class 3 The value of percent of control at 10^−7 M was more than 60% or the value of IC50 was more than 200 nM.) |
| Cc1ccc([C@H](C)NC(=O)[C@H]2CC[C@@H](Nc3ncc(C)c(N(C)C)n3)CC2)cc1 [compound 2772, cis-4-{[4-(dimethylamino)-5-methylpyrimidin-2-yl]amino}-N-[(1S)-1-(4-methylphenyl)ethyl]cyclohexanecarboxamide] | 1 (Class 1: The value of percent of control at 10^−7 M was less than 40% or the value of IC50 was less than 50 nM.) |
